Test results published in patent US20250109444A1, “DNA HYPOMETHYLATION AS A PREDICTIVE MARKER FOR CANCER THERAPY” (Fred Hutchison Cancer Center, priority 2023, published 2025).
Values belong to the molecule of their own block, whether it stands above or below them.

Tests used:
Assay type in all cases: cell-based
MALME3 cells = test: Co-treatment with EED inhibitor and ipatasertib
Description: (§1) FIGS. 5A-5C. […] Increased dependency on PRC2-mediated chromatin repression is observed with AKT inhibition, creating a therapeutic vulnerability. Co-treatment with AKTi and PRC2 inhibitors (such as EZH2 or EED inhibitors) results in synergistic effects.

[1] = test system: DHMC and non-DHMC cell lines; test: Cell viability of DHMC and non-DHMC cancer cell lines treated with AKT inhibitors; details: DHMC vs non-DHMC cell lines, wide spectrum of cancer cell lines, in vitro
Description: FIGS. 2A, 2B. […] (2A) Cell viability curves for DHMC (black) and non-DHMC (light gray) cell lines treated with 3 different AKT inhibitors (afuresertib, AZD5363, ipatasertib). (2B) IC50s for DHMCs (black) and non-DHMCs (gray).

LNCaP cells [2] = test: Co-treatment with EZH2 inhibitor and ipatasertib, cell viability; details: co-treatment with AKT inhibitor ipatasertib
Description: as §1

[3] = Sensitization to AKT inhibitors by pharmacologically induced DNA hypomethylation (DNMT inhibitors); details: pharmacologically induced DNA hypomethylation with DNMT inhibitor
Description: (§2) FIGS. 4A, 4B. Modulation of global DNA methylation changes the sensitivity to AKT inhibitors. (4A) Cell viability curves for solvent (circle) and SAMe (square) treated LNCaP cells. The difference in cell viability in response to AKTi (ipatasertib) treatment is shown. (4B) Decitabine (DAC) and GSK344862 results in sensitization.

LNCaP cells [4] = test: Cell viability of solvent vs SAMe treated LNCaP cells in response to AKTi (ipatasertib); details: prolonged treatment with methyl donor SAMe vs solvent
Description: as §2

[5] = test system: DHMC and non-DHMC cell lines; test: Cell viability of DHMC and non-DHMC cancer cell lines treated with histone evicting anthracyclines; details: DHMC vs non-DHMC cell lines, wide spectrum of cancer cell lines

Molecule: CN(C)[C@H]1CN(C2CCc3cccc(F)c32)C[C@@H]1c1ccc(N2CCN(S(C)(=O)=O)CC2)cc1 (stereo partly drawn) [A395]
Interaction with ipatasertib (MALME3 cells): Synergistic interaction

Sensitivity of DHMC compared to non-DHMC (cell viability curves, IC50s) [1]: increased sensitivity
Molecule: NC1(C(=O)N[C@@H](CCO)c2ccc(Cl)cc2)CCN(c2nc[nH]c3nccc2-3)CC1 [AZD5363, Capivasertib]

Molecule: CC[C@H](C)n1cc(C)c2c(C(=O)NCc3c(C)cc(C)[nH]c3=O)cc(-c3ccc(N4CCNCC4)nc3)cc21 [GSK126]
Interaction with ipatasertib (cell viability) (LNCaP cells [2]): synergistic reduction in cell viability

Molecule: CCc1c(C#N)c(SC(C(N)=O)c2ccccc2)nc(N(C)C)c1C#N (stereo not drawn) [GSK-3484862]
Change of sensitivity to AKT inhibitors (AKTi) [3]: increases sensitivity to AKT inhibitors

Molecule: C[S+](CC[C@H](N)C(=O)O)C[C@H]1O[C@@H](n2cnc3c(N)ncnc32)[C@H](O)[C@@H]1O (stereo partly drawn) [SAMe, S-Adenosylmethionine]
Change of sensitivity to AKTi (cell viability) (LNCaP cells [4]): decreases sensitivity to AKTi

Molecule: CC[C@@]1(O)C[C@H](O[C@H]2C[C@H](N(C)C)[C@H](O[C@H]3C[C@H](O)[C@H](O[C@H]4CCC(=O)[C@H](C)O4)[C@H](C)O3)[C@H](C)O2)c2c(cc3c(c2O)C(=O)c2c(O)cccc2C3=O)[C@H]1C(=O)OC [aclarubicin]
Sensitivity of DHMC compared to non-DHMC (cell viability curves, IC50s) [5]: increased sensitivity

Sensitivity of DHMC compared to non-DHMC (cell viability curves, IC50s) [1]: increased sensitivity
Molecule: Cn1ncc(Cl)c1-c1cc(C(=O)N[C@H](CN)Cc2cccc(F)c2)sc1Cl [afuresertib, Afuresertib]

Sensitivity of DHMC compared to non-DHMC (cell viability curves, IC50s) [1]: increased sensitivity
Molecule: CC(C)NC[C@@H](C(=O)N1CCN(c2ncnc3c2[C@H](C)C[C@H]3O)CC1)c1ccc(Cl)cc1 [ipatasertib, Ipatasertib]

Sensitivity of DHMC compared to non-DHMC (cell viability curves, IC50s) [5]: increased sensitivity
Molecule: dimethyl-doxorubicin
